Holding throughout (format): physicochemical
A short description of series [1]: Dynamic vapor sorption (DVS), determination of hygroscopicity. Conditions: for hygroscopicity, water uptake: at a high relative humidity of 80%; for weight increase in sorption step: 25° C. Here is the method: For the determination of the hygroscopicity, moisture sorption/desorption isotherms were recorded on a Surface Measurement Systems DVS-1 instrument. […] The data were evaluated with the software DVSWin V.2.15. In the DVS analysis of polymorph 1 and polymorph 2 of compound I, in the sorption steps of the two cycles the following weight increases were observed.

Series [2] is described as follows: Determination of solubility in a mixture of acetone and water (4:1, by volume). As to conditions: acetone/water 4:1 by volume. The procedure:
For the determination of the solubility in a mixture of acetone and water (4:1, by volume), samples of 0.5 mg to 50 mg of the test substances were suspended in a defined amount of the solvent (800 mg to 1200 mg) in screw cap vials with a magnetic stirring bar, which were placed in a temperature-controlled multiple stirring device equipped for transmission measurement (Avantium Crystal 16). With stirring at 700 rpm, the vials were cooled from room temperature to 0° C. and then heated to 60° C. with a heating rate of 3° C./h, kept at 60° C. for 2 h and cooled again to 0° C. with a cooling rate of 3° C./h. By means of transmission measurement it was determined whether the sample was dissolved (100% transmission), or crystals were present. For polymorph 1, polymorph 2, hydrate 1 and hydrate 2 of compound I the following solubilities in a mixture of acetone and water (4:1, by volume) were determined.

A short description of the next series: Thermogravimetry (TG). As to conditions: for TG weight loss: until the melting point. The procedure:
Thermogravimetric analyses were performed with a METTLER TGA851e instrument. 100 μl Al-crucibles with sealed lid and hole were used and the measurements performed in a nitrogen gas flow of 50 ml/min. The measured data were evaluated with the software STARe V8.10. TG measurements with infra-red (IR) spectroscopic analysis of volatiles were performed with a METTLER TGA851e instrument as described, which was coupled to a Thermo-Nicolet 380 FT-IR spectrometer equipped with a cell for gas phase measurements. The measured IR spectra were evaluated using the software OMNIC V.7.3. In the TG analyses of polymorph 1 and polymorph 2 of compound I until the melting point, insignificant weight losses of 0.2% and 0.7%, respectively, were observed. In the TG analysis of hydrate 1 of compound I, a gradual weight loss of 6.4% was observed between room temperature and 120° C. […] The observed weight loss corresponds to about 1.9 mol of water per mol of 2-(2-methylamino-pyrimidin-4-yl)-1H-indole-5-carboxylic acid [(S)-1-carbamoyl-2-(phenyl-pyrimidin-2-yl-amino)-ethyl]-amide. In the TG FT-IR analysis of hydrate 2 of compound I, a weight loss of 17-18% of water mainly in two steps was observed between room temperature and 140° C., which corresponds to about 6 mol of water per mol of 2-(2-methylamino-pyrimidin-4-yl)-1H-indole-5-carboxylic acid [(S)-1-carbamoyl-2-(phenyl-pyrimidin-2-yl-amino)-ethyl]-amide.

A further series in a line: Solubility (qualitative). Conditions: qualitative statement; for solubility compared with polymorph 1: solvent not stated.
Series [3] can be described thus: Maturation experiments (slurry conversion), relative stability of crystalline forms. Here is the method: By maturation experiments (slurry conversion) at 20° C. the relative stability of polymorphs 1 and 2 and hydrate 1 was investigated.
A polymorph mixture of 81 mg (Mixture of Polymorph 1 and Polymorph 2), 83 mg of Polymorph 1 and 60 mg of hydrate 1 was prepared. The mixture was subjected to XRPD analysis to confirm the presence of all three polymorphs and then distributed into five capillaries. These samples were kept in suspension at 20° C. for five days. After X-ray powder diffraction measurement of the suspensions these were dried over night at 40° C. and <100 mbar and again subjected to X-ray diffraction. Maturation experiments (a) to (e) were performed under the specified conditions, starting with the polymorph mixture described above.

The mark [4] stands for this setting: relative humidity 40%, first value (cycle 1).
[5] abbreviates: relative humidity 40%, second value (cycle 2).
[6] abbreviates: relative humidity 60%, first value (cycle 1).
The mark [7] stands for this setting: relative humidity 60%, second value (cycle 2).
Where [8] appears, read: relative humidity 80%, first value (cycle 1).
Where [9] appears, read: relative humidity 80%, second value (cycle 2).
[10] abbreviates: relative humidity 95%, first value (cycle 1).
Setting [11] is: relative humidity 95%, second value (cycle 2).

`CNc1nccc(-c2cc3cc(C(=O)N[C@@H](CN(c4ccccc4)c4ncccn4)C(N)=O)ccc3[nH]2)n1` [Hydrate 1, 2-(2-methylamino-pyrimidin-4-yl)-1H-indole-5-carboxylic acid [(S)-1-carbamoyl-2-(phenyl-pyrimidin-2-yl-amino)-ethyl]-amide dihydrate]: the hygroscopicity result in series [1] (qualitative statement) is recorded as “low hygroscopicity”. Also, the results for the “Solubility [g in 100 g of solvent]” value in series [2] (38.6° C.), in series [2] (49.7° C.) and in series [2] (57.4° C.) were 2.11 g in 100 g of solvent, 3.39 g in 100 g of solvent and 5.04 g in 100 g of solvent, respectively. The “TG weight loss (water)” value in the series “Thermogravimetry (TG)” (between room temperature and 120° C.) is listed as 6.4%. For the same compound, the “solubility compared with polymorph 1” value in “Solubility (qualitative)” is on record as “higher solubility than polymorph 1”.
As for `CNc1nccc(-c2cc3cc(C(=O)N[C@@H](CN(c4ccccc4)c4ncccn4)C(N)=O)ccc3[nH]2)n1` [Hydrate 2, 2-(2-methylamino-pyrimidin-4-yl)-1H-indole-5-carboxylic acid [(S)-1-carbamoyl-2-(phenyl-pyrimidin-2-yl-amino)-ethyl]-amide hexahydrate], the “Solubility [g in 100 g of solvent]” value in series [2] (36.8° C.) was 0.50 g in 100 g of solvent; in series [2] (46.1° C.), 1.02 g in 100 g of solvent; in series [2] (55.9° C.), 2.61 g in 100 g of solvent. Moreover, the “TG weight loss (water)” value in the series “Thermogravimetry (TG)” (between room temperature and 140° C., mainly in two steps) is 17-18%.
In the case of `CNc1nccc(-c2cc3cc(C(=O)N[C@@H](CN(c4ccccc4)c4ncccn4)C(N)=O)ccc3[nH]2)n1` [Polymorph 1, 2-(2-methylamino-pyrimidin-4-yl)-1H-indole-5-carboxylic acid [(S)-1-carbamoyl-2-(phenyl-pyrimidin-2-yl-amino)-ethyl]-amide], the “hygroscopicity, water uptake” value in series [1] was “about 0.9%”. For the same compound, the “weight increase in sorption step” value is 0.5%/0.5% in series [1] (setting [4]); 0.5%/0.5% in series [1] (setting [5]); 0.6%/0.6% in series [1] (setting [6]); 0.6%/0.6% in series [1] (setting [7]); 0.9%/0.9% in series [1] (setting [8]); 0.9%/0.9% in series [1] (setting [9]). Besides, the “weight increase in sorption step” value was 1.3% in series [1] (setting [10]) and 1.4% in series [1] (setting [11]). Further, the “Solubility [g in 100 g of solvent]” value was 0.43 g in 100 g of solvent in series [2] (36.9° C.), 0.50 g in 100 g of solvent in series [2] (44.7° C.) and 0.85 g in 100 g of solvent in series [2] (60.0° C.). For the same compound, in series [3] (at temperatures above about 20° C., confirmed in phase conversion experiments), the “thermodynamic stability among the polymorphs” value was “thermodynamically most stable polymorph”. Further, in series [3] (maturation experiments (a) to (e) at 20° C.), the “thermodynamic stability among polymorphs 1, 2 and hydrate 1” value is recorded as “thermodynamically most stable”. The same compound returned a TG weight loss in “Thermogravimetry (TG)” of 0.2%. For the same compound, the solubility in water result in “Solubility (qualitative)” was “low solubility in water”.
Consider `CNc1nccc(-c2cc3cc(C(=O)N[C@@H](CN(c4ccccc4)c4ncccn4)C(N)=O)ccc3[nH]2)n1` [Polymorph 2, 2-(2-methylamino-pyrimidin-4-yl)-1H-indole-5-carboxylic acid [(S)-1-carbamoyl-2-(phenyl-pyrimidin-2-yl-amino)-ethyl]-amide], for which the “hygroscopicity, water uptake” value in series [1] is “about 0.4%”. For the same compound, the “weight increase in sorption step” value is 0.2% in series [1] (setting [4]); 0.0% in series [1] (setting [5]); 0.3% in series [1] (setting [6]); 0.1% in series [1] (setting [7]); 0.4% in series [1] (setting [8]); 0.3% in series [1] (setting [9]). For the same compound, the “weight increase in sorption step” value in series [1] (setting [10]) amounted to 0.8%; in series [1] (setting [11]), 0.6%. Also, the “Solubility [g in 100 g of solvent]” value is reported as 1.02 g in 100 g of solvent in series [2] (46.0° C.) and 2.48 g in 100 g of solvent in series [2] (57.5° C.). In “Thermogravimetry (TG)”, this compound displayed a TG weight loss of 0.7%. In addition, the “solubility compared with polymorph 1” value in “Solubility (qualitative)” was “higher solubility than polymorph 1”.

The values above are taken from patent publication US9067918B2, “Crystalline forms of 2-(2-methylamino-pyrimidin-4-yl)-1H-indole-5-carboxylic acid [ (S)-1-carbamoyl-2-(phenyl-pyrimidin-2-yl-amino)-ethyl ]-amide” (Sanofi, priority 2011, dated 2015).
